Measurements published in patent US20090253654A1 (priority 2005, published 2009).

Columns and labels:
in vivo = conditions: for Co (Brain), highest concentration achieved in mouse brain: i.v. injection of 3 mg/kg; for Kp: in vivo
Method: FIG. 5: Pharmacokinetics of pro-galantamine Gln-1062 (3 mg/kg) in the mouse. […] FIG. 5b is an excerpt (“zoom”) of FIG. 5a, showing the concentration range between 0.00 and 1.00 μg/g (substance/body weight) more in detail.
Co is the highest pro-galantamine concentration (ng/ml) achieved in mouse brain after i.v. injection of 3 mg/kg of pro-galantamine. R-Pro is the brain-to-blood concentration ratio of pro-galantamine, R-Gal that of galantamine under these experimental conditions. For comparison, Co and R-Gal are also provided for i.v. injection of the same amount of galantamine.
Determination of the pharmacokinetic profiles of Gln-1062 and its cleavage product galantamine in blood and brain. Determine the brain-to-blood concentration ratios of Gln-1062 and its cleavage product galantamine, and assess the blood-brain barrier penetration capacities.
Analytical method for estimation of Gln-1062 was evaluated for its linearity, precision & accuracy and recovery in SAM blood and brain homogenate using LC/MS/MS.
Blood samples were collected from the retro-orbital plexus. 0.5 ml of blood was collected into a pre-labeled polypropylene micro centrifuge tube containing sodium citrate as the anticoagulant, and kept on ice.
Immediately after blood withdrawal, brain was perfused with phosphate buffer saline (pH 7.4), removed and frozen on dry ice.
Brain samples were thawed on ice and weighed. n appropriate volume ice cold homogenizing media (methanol:water::20:80,v/v) added. n ice, homogenized the brain sample with the polytron homogenizer and make up the volume with homogenizing media to get 1 gm of brain per 4 mL of homogenate. after homogenizing, immediately freezed the brain homogenate samples at −80° C. until analysis.

[1] = target: T1, a4β2 neuronal nicotinic acetylcholine receptor (Homo sapiens, UniProt P17787+P43681); experiment: Whole-cell patch clamp recording of allosteric potentiation in HEK-293 cells; format: cell-based
T1 construct: expressed in transfected cells; host or cells: HEK-293
T1 sequence (P43681 29-627 limits assumed): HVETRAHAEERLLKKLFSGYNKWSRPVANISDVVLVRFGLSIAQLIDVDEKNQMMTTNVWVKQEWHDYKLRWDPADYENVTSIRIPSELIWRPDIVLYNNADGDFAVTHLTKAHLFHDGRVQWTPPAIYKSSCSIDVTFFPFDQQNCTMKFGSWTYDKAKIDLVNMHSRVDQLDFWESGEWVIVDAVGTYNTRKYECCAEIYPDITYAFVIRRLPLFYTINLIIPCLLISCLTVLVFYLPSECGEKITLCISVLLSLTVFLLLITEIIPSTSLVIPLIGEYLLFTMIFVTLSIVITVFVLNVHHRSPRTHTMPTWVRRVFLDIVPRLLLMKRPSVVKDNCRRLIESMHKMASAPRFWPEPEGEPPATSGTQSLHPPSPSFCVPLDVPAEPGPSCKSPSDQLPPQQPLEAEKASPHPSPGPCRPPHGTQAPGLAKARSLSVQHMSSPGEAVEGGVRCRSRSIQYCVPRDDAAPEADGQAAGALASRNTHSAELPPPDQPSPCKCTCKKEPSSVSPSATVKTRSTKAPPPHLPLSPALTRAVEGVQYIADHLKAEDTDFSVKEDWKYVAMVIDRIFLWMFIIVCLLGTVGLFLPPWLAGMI
T1 sequence (P17787 26-502): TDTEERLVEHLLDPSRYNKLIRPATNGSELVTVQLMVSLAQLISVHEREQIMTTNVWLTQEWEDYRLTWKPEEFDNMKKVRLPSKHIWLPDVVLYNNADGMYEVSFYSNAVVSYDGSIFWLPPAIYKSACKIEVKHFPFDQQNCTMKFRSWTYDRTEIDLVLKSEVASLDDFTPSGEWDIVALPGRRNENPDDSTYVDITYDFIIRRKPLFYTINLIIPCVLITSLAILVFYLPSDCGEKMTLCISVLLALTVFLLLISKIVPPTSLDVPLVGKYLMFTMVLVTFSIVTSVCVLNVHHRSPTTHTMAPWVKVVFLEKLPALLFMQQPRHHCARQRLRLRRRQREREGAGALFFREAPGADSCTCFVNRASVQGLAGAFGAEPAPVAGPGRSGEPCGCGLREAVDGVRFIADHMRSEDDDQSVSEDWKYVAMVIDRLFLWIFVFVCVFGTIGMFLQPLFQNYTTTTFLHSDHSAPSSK
Method: FIG. 4: Interaction of galantamine and pro-galantamine with a4β2 neuronal nicotinic acetylcholine receptor ectopically expressed in HEK-293 cells. The increase in response to acetylcholine in the presence of galantamine and Gln-1062, respectively, was determined by whole-cell patch clamp recording. Galantamine achieved a maximal enhancement of response of ˜40% whereas the pro-galantamine achieved a maximal enhancement of only ˜17%.
Investigation of the allosteric modulation effect of drug candidates on nicotinic acetylcholine receptors (nAChRs) expressed in HEK-293 cells by electrophysiology. Results shown as FIG. 4.
Single HEK-293 cells expressing either human α4β2, human α3β4, or chimeric chicken α7 (with mouse 5HT3) nAChR were plated on fibronectin-coated cover slips for 3 days before measurement. […] A programmable puller (Sutter, USA) was used to prepare a twin pair of ready for use pipettes. […] To evaluate an allosteric potentiating ligand (APL) effect of selected compounds on each subtype of nAChR, they were added to stimulating nicotine solutions at the following concentrations: 1, 5, 10, 50, 100, 500, 1,000, 5,000 and 10,000 nM, and solutions were applied to the cell surface during 500 ms pulses through the U-tube, and then corresponding currents, digitized to 10 kHz, were recorded for 10 s. […]

[2] = cited from earlier work
[3] = unmodified drug; cited from earlier work
brain cholinesterase = target: T2, brain cholinesterase (Mus musculus, UniProt P21836); format: biochemical; conditions: mouse brain homogenate, 200 μM acetylthiocholine; pro-galantamines up to 50 μM
T2 construct: from tissue; host or cells: mouse brain homogenate
T2 sequence (P21836 32-614): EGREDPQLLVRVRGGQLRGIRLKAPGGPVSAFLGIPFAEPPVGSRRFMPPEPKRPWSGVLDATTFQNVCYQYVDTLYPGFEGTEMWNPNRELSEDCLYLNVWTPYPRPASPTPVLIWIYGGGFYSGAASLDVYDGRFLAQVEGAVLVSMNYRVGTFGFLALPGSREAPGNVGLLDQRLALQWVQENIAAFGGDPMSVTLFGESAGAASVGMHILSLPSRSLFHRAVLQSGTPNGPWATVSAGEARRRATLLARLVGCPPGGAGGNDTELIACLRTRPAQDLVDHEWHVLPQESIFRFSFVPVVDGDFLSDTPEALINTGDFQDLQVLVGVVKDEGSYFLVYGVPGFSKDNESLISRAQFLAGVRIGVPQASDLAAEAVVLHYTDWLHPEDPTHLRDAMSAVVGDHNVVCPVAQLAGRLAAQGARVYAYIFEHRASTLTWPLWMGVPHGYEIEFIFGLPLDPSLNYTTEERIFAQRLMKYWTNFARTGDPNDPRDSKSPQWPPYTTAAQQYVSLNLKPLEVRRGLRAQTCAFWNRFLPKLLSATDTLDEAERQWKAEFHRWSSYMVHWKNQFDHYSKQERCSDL
Method: A 20% mouse brain homogenate was used, supplemented with 200 μM of acetylthiocholine as substrate, and the initial reaction kinetics were measured according to Riddles P W, Blakeley R L, Zerner B., “Reassessment of Ellman's reagent” Methods Enzymol.
The brain is removed from the animal (mouse), shock frozen in liquid nitrogen and stored at minus 80° C. until use. Before preparing the extract, the frozen brain is thawed on ice and the weight is determined. Ice cold buffer (130 mM NaCl, 5 mM KCl, 2.5 mM CaCl2, 1 mM MgCl2, 5 mM Glucose, 5 mM HEPES, pH 7.4) is added to the thawed mouse brain (1:4, weight to volume, resulting in a 20% brain homogenate). The tissue is then homogenized in a potter homogeniser on ice, moving the piston up and down 11 times at 240 rpm. The freshly prepared mouse brain homogenate is divided into aliquots.
A modified Ellmann's esterase test is used. Briefly the method relies on the cleavage of the substrate acetylthiocholine to acetate and thiocholine. […] The inhibition is expressed as percent of the non inhibited reaction according to following equation: […]

[4] = test system: scopolamine-induced amnesia in mice; experiment: Reversal from scopolamine-induced amnesia in mice, T-maze alternation; format: in vivo, mouse; conditions: i.p.
Method: Scopolamine induces a memory deficit that can be measured by […] alternation in a T-maze trial. The cognition enhancing drugs were i.p. injected at several different doses together with scopolamine 20 min before a T-maze trial. Recovery was measured as a function of dose, and the EC50 was determined for each drug.
Analysis of variance (ANOVA) was performed on the result data.

C=C[C@@]12C=C[C@H](O)C[C@@H]1Oc1c(OC)ccc(CNC)c12 [10,11-Seco-11,12-dehydro-galantamine, (3R,4aS,9bS)-6-Methoxy-9-methylaminomethyl-3,4,4a,9b-tetrahydro-9b-vinyl-dibenzofuran-3-ol]
melting point: 127 to 129 °C

CCC(C)C(=O)O[C@H]1C=C[C@@]23CCN(C)Cc4ccc(OC)c(c42)OC3C1 (stereo partly drawn) [GLN-1067]
Co (Brain), highest concentration achieved in mouse brain (in vivo): 4665 ng/mL | Kp (in vivo; mouse, iv, 3 mg/kg): 7.5

COc1ccc2c3c1O[C@H]1C[C@@H](O)C=C[C@@]31CCN(C)C2 [Galantamine]
Co (Brain), highest concentration achieved in mouse brain (in vivo): 1741 ng/mL | Kp (in vivo; mouse, 3 mg/kg): ~1.3 | maximal enhancement of response to acetylcholine [1]: ~40% | tissue to plasma ratio (T/P), spleen ([2]; female rat): ~20 | tissue to plasma ratio (T/P), kidney ([2]; male and female rat): 10-15 | tissue to plasma ratio (T/P), salivary and adrenal gland ([2]; male and female rat): 7-14 | brain to plasma ratio (T/P) ([2]; rat): ~1.5 | tissue to plasma ratio (T/P), lung, liver, heart, skeletal muscle and testes ([2]; rat): 2-4 | brain-to-plasma ratio [3]: ~1.3

CCCCCC(=O)O[C@H]1C=C[C@@]23CCN(C)Cc4ccc(OC)c(c42)O[C@H]3C1 [GLN-0993]
Co (Brain), highest concentration achieved in mouse brain (in vivo): 2150 ng/mL | Kp (in vivo; mouse, iv, 3 mg/kg): 6.4

CCC(=O)O[C@H]1C=C[C@@]23CCN(C)Cc4ccc(OC)c(c42)O[C@H]3C1 [GLN-0978]
Co (Brain), highest concentration achieved in mouse brain (in vivo): 1985 ng/mL | Kp (in vivo; mouse, iv, 3 mg/kg): 6.9

COc1ccc2c3c1OC1C[C@@H](OC(=O)c4ccccc4)C=C[C@@]31CCN(C)C2 (stereo partly drawn) [GLN-1062, (4aS,6R,8aS)-4a,5,9,10,11,12-Hexahydro-3-methoxy-11-methyl-6H-benzofuro[3a,3,2-ef][2]benzazepin-6-ol, benzoate (ester)]
Kp (in vivo; SAM, mouse): > 19 | Co (Brain), highest concentration achieved in mouse brain (in vivo): 4812 ng/mL | concentration of GLN-1062 in blood at start of curve (in vivo; mouse, 3 mg/kg, FIG. 5b): about 0.3 μg/g | Kp (in vivo; mouse, iv, 3 mg/kg): 19.3 | inhibition of brain cholinesterase (brain cholinesterase): little, if any cholinesterase inhibitory activity | maximal enhancement of response to acetylcholine [1]: ~17% | potency relative to galantamine in reversing scopolamine-induced amnesia [4]: approximately 4 times

COc1ccc2c3c1OC1C[C@@H](OC(=O)C4CC4)C=C[C@@]31CCN(C)C2 (stereo partly drawn) [GLN-1076]
Co (Brain), highest concentration achieved in mouse brain (in vivo): 1245 ng/mL | Kp (in vivo; mouse, iv, 3 mg/kg): 1.1

COc1ccc2c3c1O[C@H]1C[C@@H](OC(=O)C(C)C)C=C[C@@]31CCN(C)C2 [GLN-0979]
Co (Brain), highest concentration achieved in mouse brain (in vivo): 3166 ng/mL | Kp (in vivo; mouse, iv, 3 mg/kg): 6.2
